Experimental data taken from ChEMBL document CHEMBL3259563, “The discovery of potent and selective non-steroidal glucocorticoid receptor modulators, suitable for inhalation” (Bioorg Med Chem Lett, 2014).

Columns and labels:
Glucocorticoid receptor [1] = biological target: T1, Glucocorticoid receptor (Homo sapiens, UniProt P04150)
T1 sequence (P04150 whole entry): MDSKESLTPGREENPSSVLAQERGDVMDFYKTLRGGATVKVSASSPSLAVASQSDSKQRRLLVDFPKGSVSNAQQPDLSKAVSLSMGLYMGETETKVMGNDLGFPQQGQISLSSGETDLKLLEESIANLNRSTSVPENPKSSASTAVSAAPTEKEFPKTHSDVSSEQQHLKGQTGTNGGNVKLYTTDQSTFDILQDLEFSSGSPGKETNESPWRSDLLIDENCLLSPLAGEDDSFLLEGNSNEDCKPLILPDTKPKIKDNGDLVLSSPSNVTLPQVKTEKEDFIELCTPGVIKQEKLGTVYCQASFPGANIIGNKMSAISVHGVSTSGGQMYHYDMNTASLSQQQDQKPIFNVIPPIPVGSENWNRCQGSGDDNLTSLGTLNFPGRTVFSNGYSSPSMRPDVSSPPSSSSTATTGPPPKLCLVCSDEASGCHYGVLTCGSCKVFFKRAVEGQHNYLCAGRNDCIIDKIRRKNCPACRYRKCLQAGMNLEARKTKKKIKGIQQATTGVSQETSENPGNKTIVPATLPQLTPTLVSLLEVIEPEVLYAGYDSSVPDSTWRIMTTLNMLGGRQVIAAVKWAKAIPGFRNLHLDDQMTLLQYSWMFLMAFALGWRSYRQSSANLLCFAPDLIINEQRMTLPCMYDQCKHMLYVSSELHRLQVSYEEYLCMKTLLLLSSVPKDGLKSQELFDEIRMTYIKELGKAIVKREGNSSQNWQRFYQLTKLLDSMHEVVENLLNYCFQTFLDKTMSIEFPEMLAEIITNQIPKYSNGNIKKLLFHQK
Description: Binding affinity to human glucocorticoid receptor by fluorescence polarization assay

[2] = Lipophilicity, log D of the compound at pH 7.4; type: physicochemical; settings: buffer
Glucocorticoid receptor [3] = biological target: T1, Glucocorticoid receptor; remark: listed apart in the source
Description: Agonist activity at glucocorticoid receptor in human Chago K1 cells assessed as gene transrepression by Lac-Z reporter gene assay

Glucocorticoid receptor [4] = biological target: T1, Glucocorticoid receptor; remark: listed apart in the source
Description: Agonist activity at glucocorticoid receptor in human PBMC assessed as inhibition of LPS-stimulated TNF-alpha release

Mus musculus = assay: Antiinflammatory activity in mouse acute cigarette smoke model assessed as inhibition of neutrophil influx to broncho-alveolar lavage fluid at 30 ug/kg, administered intratracheally 30 mins prior to first cigarette smoke challenge every day for 4 days measured after 24 hrs post last cigarette smoke challenge relative to control; settings: inhaled or nasal
Rattus norvegicus [5] = assay: Antiinflammatory activity in rat assessed as inhibition of LPS-induced leukocyte influx to broncho-alveolar lavage fluid at 100 ug/kg, administered intratracheally 2 hrs prior to LPS challenge measured after 4 hrs relative to control; type: functional; settings: inhaled or nasal
Rattus norvegicus [6] = assay: Antiinflammatory activity in rat assessed as inhibition of LPS-induced lung edema at 100 ug/kg, administered intratracheally 2 hrs prior to LPS challenge measured after 4 hrs relative to control; type: functional; settings: inhaled or nasal
Rattus norvegicus [7] = assay: Antiinflammatory activity in rat assessed as inhibition of LPS-induced leukocyte influx to broncho-alveolar lavage fluid at 30 ug/kg, administered intratracheally 2 hrs prior to LPS challenge measured after 4 hrs relative to control; type: functional; settings: inhaled or nasal
Rattus norvegicus [8] = assay: Antiinflammatory activity in rat assessed as inhibition of LPS-induced lung edema at 10 ug/kg, administered intratracheally 2 hrs prior to LPS challenge measured after 4 hrs relative to control; type: functional; settings: inhaled or nasal
Rattus norvegicus [9] = assay: Antiinflammatory activity in rat assessed as inhibition of LPS-induced lung edema at 30 ug/kg, administered intratracheally 2 hrs prior to LPS challenge measured after 4 hrs relative to control; type: functional; settings: inhaled or nasal
Rattus norvegicus [10] = assay: Antiinflammatory activity in rat assessed as inhibition of LPS-induced leukocyte influx to broncho-alveolar lavage fluid at 10 ug/kg, administered intratracheally 2 hrs prior to LPS challenge measured after 4 hrs relative to control; type: functional; settings: inhaled or nasal

| Structure (SMILES) | IC50 (Glucocorticoid receptor [1]) [µM] | IC50 (Glucocorticoid receptor [3]) [µM] | IC50 (Glucocorticoid receptor [4]) [µM] | also measured |
| --- | --- | --- | --- | --- |
| Cc1cc(C)c(S(=O)(=O)N[C@@H](C)CCc2ccccc2)c(C)c1 | 0.055 | – | – | – |
| Cc1cc(C)c(S(=O)(=O)N[C@@H](C)COc2c(C)cccc2C)c(C)c1 | 0.085 | – | – | – |
| Cc1cc(C)c(S(=O)(=O)N[C@@H](C)COc2cccc3cnccc23)c(C)c1 | 0.018 | – | – | logD [2]: 4.1 |
| Cc1cc(C)c(S(=O)(=O)N[C@@H](C)COc2cccc3ncccc23)c(C)c1 | 0.24 | 0.96 | – | – |
| Cc1cc(C)c(S(=O)(=O)N[C@@H](C)CNc2cccc3[nH]ncc23)c(C)c1 | – | 0.76 | – | – |
| Cc1cc(C)c(S(=O)(=O)N[C@@H](C)CNc2ccc3ncccc3c2)c(C)c1 | 10 | – | – | – |
| Cc1cc(C)c(S(=O)(=O)N[C@@H](C)CNc2ccc3cnccc3c2)c(C)c1 | 10 | – | – | – |
| Cc1ccc(S(=O)(=O)N[C@@H](C)COc2cccc3ncccc23)c(C)c1 | 1.6 | – | – | – |
| C[C@@H](COc1cccc2ncccc12)NS(=O)(=O)c1c(Cl)cc(Cl)cc1Cl | 0.08 | 2.4 | – | – |
| Cc1cc(Cl)cc(Cl)c1S(=O)(=O)N[C@@H](C)COc1cccc2ncccc12 | 0.22 | – | – | – |
| COc1ccccc1S(=O)(=O)N[C@@H](C)COc1cccc2ncccc12 | > 10 | – | – | – |
| C[C@@H](COc1cccc2ncccc12)NS(=O)(=O)c1cccc(C#N)c1 | 1.8 | – | – | – |
| C[C@@H](COc1cccc2ncccc12)NS(=O)(=O)c1ccccc1C#N | > 10 | – | – | – |
| C[C@@H](COc1cccc2ncccc12)NS(=O)(=O)c1ccccc1 | > 10 | – | – | – |
| Cc1ccc(S(=O)(=O)N[C@@H](C)COc2cccc3cnccc23)c(C)c1 | 0.41 | – | – | – |
| Cc1nn(C2CCCC2)c(C)c1S(=O)(=O)N[C@@H](C)COc1cccc2cnccc12 | 0.032 | – | – | logD [2]: 3.5 |
| Cc1nn(C2CCCC2)c(C)c1S(=O)(=O)N[C@@H](C)CNc1cccc2c1cnn2-c1ccc(F)cc1 | – | 0.0097 | – | – |
| Cc1nn(C2CCCC2)c(C)c1S(=O)(=O)N[C@@H](C)CNc1cccc2c1cnn2-c1ccc(C#N)cc1 | – | 0.016 | 0.013 | – |
| Cc1nn(C2CCCC2)c(C)c1S(=O)(=O)N[C@@H](C)CNc1cccc2c1cnn2-c1cncnc1 | – | 0.043 | – | – |
| Cc1cc(C)c(S(=O)(=O)NC(COc2cccc3c2cnn3-c2ccc(F)cc2)C(F)(F)F)c(C)c1 (racemic) | 0.0038 | 0.014 | 0.036 | – |
| CCC(=O)O[C@]1(C(=O)SCF)[C@H](C)C[C@H]2[C@@H]3C[C@H](F)C4=CC(=O)C=C[C@]4(C)[C@@]3(F)[C@@H](O)C[C@@]21C [FLUTICASONE PROPIONATE] | – | – | – | inhibition in vivo at 0.03 mg/kg (Mus musculus): 0%; inhibition in vivo at 0.1 mg/kg (Rattus norvegicus [5]): 94%; inhibition in vivo at 0.1 mg/kg (Rattus norvegicus [6]): 116%; inhibition in vivo at 0.03 mg/kg (Rattus norvegicus [7]): 92%; inhibition in vivo at 0.01 mg/kg (Rattus norvegicus [8]): 64%; inhibition in vivo at 0.03 mg/kg (Rattus norvegicus [9]): 78%; inhibition in vivo at 0.01 mg/kg (Rattus norvegicus [10]): 84% |

More lines, main results first:

| IC50 (Glucocorticoid receptor [1]) [µM] | IC50 (Glucocorticoid receptor [3]) [µM] | IC50 (Glucocorticoid receptor [4]) [µM] | Structure (SMILES) | also measured |
| --- | --- | --- | --- | --- |
| – | 1.8 | – | Cc1cc(C)c(S(=O)(=O)N[C@@H](C)CNc2cccc3ncccc23)c(C)c1 | – |
| – | 1.1 | – | Cc1cc(C)c(S(=O)(=O)N[C@@H](C)CNc2ccc(C)c3ncccc23)c(C)c1 | – |
| 0.16 | 2.2 | – | Cc1cc(C)c(S(=O)(=O)N[C@@H](C)CNc2cccc3nc(C)ccc23)c(C)c1 | – |
| – | – | 0.023 | Cc1cc(C)c(S(=O)(=O)N[C@@H](C)CNc2cccc3c2cnn3-c2ccc(F)nc2)c(C)c1 | – |
| – | 0.0066 | 0.0088 | Cc1cccc(-n2ncc3c(NC[C@H](C)NS(=O)(=O)c4c(C)cc(C)cc4C)cccc32)c1 | – |
| – | 0.0015 | 0.0016 | Cc1cc(C)c(S(=O)(=O)N[C@@H](C)CNc2cccc3c2cnn3-c2ccccc2)c(C)c1 | – |
| 0.0053 | 0.0069 | 0.0081 | Cc1cc(C)c(S(=O)(=O)N[C@@H](C)CNc2cccc3c2cnn3-c2cncnc2)c(C)c1 | – |
| – | 0.0026 | 0.002 | Cc1cc(C)c(S(=O)(=O)N[C@@H](C)CNc2cccc3c2cnn3-c2cccnc2)c(C)c1 | – |
| 0.0034 | 0.0037 | 0.013 | Cc1cc(C)c(S(=O)(=O)N[C@@H](C)CNc2cccc3c2cnn3-c2ccc(Cl)cc2)c(C)c1 | – |
| 0.0041 | 0.014 | 0.023 | Cc1cc(C)c(S(=O)(=O)N[C@@H](C)CNc2cccc3c2cnn3-c2ccc(F)c(C)c2)c(C)c1 | – |
| – | 0.0045 | 0.012 | Cc1ccc(-n2ncc3c(NC[C@H](C)NS(=O)(=O)c4c(C)cc(C)cc4C)cccc32)cc1 | – |
| 0.035 | 0.012 | 0.0021 | Cc1cc(C)c(S(=O)(=O)N[C@H](CNc2cccc3c2cnn3-c2ccc(F)cc2)C(C)C)c(C)c1 | – |
| – | 0.0061 | 0.028 | Cc1cc(C)c(S(=O)(=O)N[C@@H](C)CNc2cccc3c2cnn3-c2cccc(F)c2)c(C)c1 | – |
| – | 0.041 | – | COc1cccc(-n2ncc3c(NC[C@H](C)NS(=O)(=O)c4c(C)cc(C)cc4C)cccc32)c1 | – |
| – | 0.023 | 0.012 | Cc1cc(C)c(S(=O)(=O)N[C@@H](C)CCc2cccc3c2cnn3-c2ccc(F)cc2)c(C)c1 | – |
| 0.0077 | – | – | Cc1cc(C)c(S(=O)(=O)NC(C)CSc2cccc3c2cnn3-c2ccc(F)cc2)c(C)c1 (racemic) | – |
